This note sets out measurements from patent US7960392B2, “Nitrogen-containing heterocyclic compounds” (Asahi Kasei Pharma Corporation, priority 2008, dated 2011).

One may read the IC50 as the concentration at which inhibition is half-maximal. The Ki is the dissociation constant of the complex between target and ligand, obtained from inhibition or displacement. Higher therefore signals weaker binding.

Assay [1] deals with T1, human EP1 receptor (Homo sapiens, UniProt P34995).
T1 construct: expressed in transfected cells
T1 sequence (P34995 1-402): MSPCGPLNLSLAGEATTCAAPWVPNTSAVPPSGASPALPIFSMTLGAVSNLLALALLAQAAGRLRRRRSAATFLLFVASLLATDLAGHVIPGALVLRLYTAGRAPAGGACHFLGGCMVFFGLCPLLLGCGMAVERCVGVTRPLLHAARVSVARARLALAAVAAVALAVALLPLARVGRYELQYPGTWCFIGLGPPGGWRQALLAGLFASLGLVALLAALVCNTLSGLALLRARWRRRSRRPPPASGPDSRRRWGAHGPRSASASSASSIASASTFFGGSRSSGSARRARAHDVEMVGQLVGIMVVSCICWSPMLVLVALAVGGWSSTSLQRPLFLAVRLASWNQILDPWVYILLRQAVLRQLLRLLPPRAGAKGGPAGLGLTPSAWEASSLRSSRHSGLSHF
Kind of assay: Antagonist activity (intracellular Ca2+ assay) using cells expressing human EP1 receptor. Particulars: HEK293 cells stably expressing human EP1 receptor; inhibition of increase in intracellular Ca2+ concentration by PGE2 (10 nM); Fura 2-AM. It counts as cell-based. As to the method:
(§1) Measurement of an Antagonist Activity by Using Cells Expressing Human EP1 Receptor
In order to investigate the EP1 receptor antagonist activity of the compounds of the present invention, intracellular Ca^2+ was measured by using HEK293 cells in which human EP1 receptor has been stably expressed.
Cells expressing human EP1 receptor were suspended in an assay buffer to the concentration of 5×10^6 cells/ml, added with Puronic F-127 (final concentration 0.2%), and Fura 2-AM (final concentration 5 uM), followed by incubation at 37° C. for 30 minutes. After washing twice with the assay buffer, the cells were again suspended in the assay buffer to 1×10^6 cells/60 ul, and then transferred to a 96 well UV plate (1×10^6 cells/60 ul/well). Thereafter, by using a fluorescent chemical screening system (FDSS4000, Hamamatsu Photonics K.K.), intracellular Ca^2+ concentration was measured after adding 20 ul of each of the test compounds and PGE2 (5× of the final concentration for both). Ca^2+ concentration was measured by determining fluorescence intensity after irradiation with two excitation wavelengths, i.e., 340 and 380 nm.
Furthermore, EP1 antagonist activity was calculated as a ratio (%) of inhibiting increase in intracellular Ca^2+ concentration by PGE2 (10 nM).
Assay buffer: 20 mM HEPES/KOH (pH 7.4), 115 mM NaCl, 5.4 mM KCl, 0.8 mM MgCl2, 0.8 mM CaCl2, 13.8 mM D-glucose, 0.1% BSA

The target of assay [2] is T1, human EP1 receptor. The experiment in a line: Antagonist activity (SRE-Luciferase reporter activity) using cells expressing human EP1 receptor. It counts as cell-based. The note with it: HEK293 cells stably expressing human EP1 receptor with SRE-Luciferase reporter; PGE2 final concentration 10 nM; 37° C. for 6 hours; read-out: IC50 value, antagonist activity measurement test using the cells expressing human EP1 receptor. The procedure: as §1
In order to investigate the EP1 receptor antagonist activity of the compounds of the present invention, a reporter activity was measured by using HEK293 cells in which human EP1 receptor has been stably expressed.
As a result of searching Refseq Database for prostaglandin E receptor, genetic information of human EP1 (NM_000955) receptor was obtained. Based on this sequence information, human EP1 receptor gene was cloned by PCR using human cDNA as a template and by other general method to give human EP1 receptor. Then, HEK293 in which the receptor is stably expressed was established, together with a reporter gene (SRE-Luciferase) in which serum responsible element (SRE) is added at the upstream region of firefly luciferase gene. The resulting cells were added to a 96 well plate (5×10^4 cells/well) and cultured for one day. To the plate, PGE2 (200 nM, final concentration 10 nM) and the test compound (in an amount of 1/20, 20× of the final concentration) were added to initiate the reaction. After allowing the reaction to proceed at 37° C. for 6 hours, the medium was aspirated off, added with a luminescent agent and the reporter activity was measured.
A general note: In a reporter assay the amount or activity of a reporter protein is the signal.

In assay [3] the target is T1, human EP1 receptor. The experiment in a line: Receptor binding test ([3H]PGE2 binding inhibition) using cells expressing human EP1 receptor. Particulars: membrane fraction of HEK293 cells stably expressing human EP1 receptor; [3H]PGE2 1 nM; 30° C. for 90 minutes; Ki=IC50/(1+[C]/Kd). The procedure:
Receptor Binding Test Using Cells Expressing Human EP1 Receptor
Inhibitory activity of the test compounds on binding of [^3H]PGE2 in HEK293 cells stably expressing human EP1 receptor was measured.
HEK293 cells which stably express human EP1 receptor were established by using the gene for human EP1 receptor, and then a membrane fraction was prepared therefrom. Thus-prepared membrane fraction was incubated at 30° C. for 90 minutes with a reaction solution (200 μL/well) which includes the test compound and [^3H]PGE2. Upon the completion of the reaction, the reaction solution was aspirated off under reduced pressure, and the [^3H]PGE2 bound to the membrane fraction was trapped by using Unifilter Plateg F/C (manufactured by Packard) and the bound radioactivity was counted with a liquid scintillator.
Kd value was obtained from a Scatchard plot. Non-specific binding was obtained from the binding in the presence of an excess amount (10 μM) of non-labeled PGE2. For the measurement of an inhibitory activity of the test compound on [^3H]PGE2 binding, [^3H]PGE2 (1 nM) and various concentrations of the test compound were added. Meanwhile, for all of the reactions, the buffer as described below was used.
Buffer;10 mM MES/NaOH (pH 6.0), 10 mM MgCl2, 1 mM EDTA, 0.1% BSA
Dissociation constant of the compounds, i.e., Ki, was obtained according to the following equation. […]

Assay [4] deals with male SD rat. The experiment in a line: Micturition interval prolongation in an awaken rat-II. Particulars: cystitis induced by 0.3% acetic acid, intravenous administration, 60 minutes post- vs 30 minutes pre-administration. Format: in vivo. From the text: Micturition Interval Prolongation in an Awaken Rat-II As a test animal, a male SD rat (Charles River Corporation, Japan) was used. The rat was anesthetized by isofluran inhalation (nitrous oxide:oxygen=7:3), and being laid on its stomach, it remained anesthetized by 2% isofluran inhalation. Then, an incision was made at the center region of the abdomen, and the bladder was exposed. A small incision was made to the vertex region of the bladder, and a polyethylene tube (PE-50: Becton Dickinson) was inserted to the bladder and fixed. One end of a cannula was subcutaneously directed to the backside of the animal, and after fixing the cannula to the abdomen wall, the incision was sealed. The cannula directed to the backside was connected to a seibel and the middle region was protected with a stainless spring. […] Then, through one end of the tube that had been inserted to the bladder, physiological saline warmed to 37° C. was injected at the rate of 3.0 mL/hr using a three-way stop cock, while the other end was connected to a pressure transducer and cystometrogram was recorded continuously with pressure amplification. The discharged urine was collected in a vessel placed on a digital balance and change in the urine weight was measured at the same time. […]

Assay [5] has as its system female SD rat. The experiment in a line: Micturition interval prolongation in an anesthetized rat-II. Particulars: urethane-anesthetized female SD rat; 0.2% acetic acid in physiological saline infused to the bladder; administered to the left femoral vein. Format: in vivo. As to the method: Micturition Interval Prolongation in an Anesthetized Rat-II
Activity of prolonging micturition interval in an anesthetized rat was determined with reference to the method established by Maggi, et al. (Eur. J. Pharmacol. 145, p. 105-112 (1988)). Specifically, a female SD rat was anesthetized with urethane and fixed in a flat position, and a catheter was inserted through an external urethral opening. Using a three-way stop cock, it was connected to a pressure transducer and a syringe pump. While infusing physiological saline including 0.2% acetic acid to the bladder at constant rate, cystometrogram was recorded. After confirming stabilized micturition interval, micturition threshold pressure and maximal voiding pressure, a solvent or the compound to be tested was administered to the left femoral vein and an activity of prolonging micturition interval was determined as an efficacy of the drug compound. Each group included five animals.

As for `Cc1c(-c2ccccc2)nn(-c2nc(C(=O)O)cs2)c1-c1ccoc1` [Exp. 95], the 50% inhibitory concentration (IC50) was 300 to 1000 nM in assay [1] and no more than 100 nM in assay [2].
The matching figures for `O=C(O)c1csc(-n2nc(-c3ccccc3)c3c2-c2ccccc2C3)n1` [Exp. 114]: no more than 300 nM and no more than 100 nM.
As to `Nc1c(-c2ccccc2)nn(-c2nc(C(=O)O)cs2)c1-c1ccccc1` [Exp. 35], the Ki in assay [3] is no more than 300 nM. For the same compound, in assay [4], the micturition volume result was “increase in micturition volume” and the “prolongation in micturition interval” value is “at least 30%”. Also, the IC50 in assay [1] is no more than 300 nM. In assay [2], the 50% inhibitory concentration (IC50) is no more than 100 nM.
Consider `O=C(O)c1csc(-n2nc(-c3ccccc3)c(Cl)c2-c2ccccc2)n1` [Exp. 37], for which the concentration for half-maximal inhibition (IC50) is 300 to 1000 nM in assay [1] and no more than 100 nM in assay [2].
Consider `COc1ccccc1-c1c(C)c(-c2ccccc2)nn1-c1nc(C(=O)O)cs1` [Exp. 42], for which, in assay [2], the half-inhibitory concentration (IC50) was 300 to 1000 nM.
On the same count and under the same terms, with `Cc1c(-c2ccccc2)nn(-c2nc(C(=O)O)cs2)c1-c1cc(F)cc(F)c1` [Exp. 80] the figure was no more than 100 nM; with `Cc1c(-c2ccccc2)nn(/C=C\c2nc(C(=O)O)cs2)c1-c1ccccc1` [Exp. 127], 300 to 1000 nM; with `Cc1c(-c2ccccc2)nn(-c2nc(C(=O)O)cs2)c1-c1cccs1` [Exp. 91], 100 to 300 nM.
Take `Cc1c(-c2ccccc2)nn(-c2nc(C(=O)O)cs2)c1-c1ccc(F)cc1` [Exp. 54]: the IC50 in assay [2] was no more than 100 nM.
For the compound `Cc1c(-c2ccccc2)nn(-c2nc(C(=O)O)cs2)c1-c1cc(F)ccc1F` [Exp. 88], the half-inhibitory concentration (IC50) in assay [2] lay within 100 to 300 nM.
Still for that read-out and setting: with `Cc1c(-c2ccccc2)nn(/C=C/c2nc(C(=O)O)cs2)c1-c1ccccc1` [Exp. 128] the figure was 100 to 300 nM.
For `O=C(O)c1csc(-n2nc(-c3ccccc3)c(Br)c2-c2ccccc2)n1` [Exp. 38], the results for the half-maximal inhibitory concentration (IC50) in assay [1] and in assay [2] were no more than 300 nM and no more than 100 nM, respectively.
The like results for `Cc1c(-c2ccccc2)nn(-c2nc(C(=O)O)cs2)c1-c1ccco1` [Exp. 94] were, in that order, 300 to 1000 nM and no more than 100 nM.
In the case of `O=C(O)c1csc(-n2nc(-c3ccccc3)c3oc4ccccc4c32)n1` [Exp. 117], the IC50 in assay [2] is no more than 100 nM.
In the case of `Cc1c(-c2ccccc2)nn(-c2nc(C(=O)O)cs2)c1-c1ccccc1` [Exp. 30], in assay [3], the inhibitory constant (Ki) was no more than 300 nM. The figures for the 50% inhibitory concentration (IC50) in assay [1] and in assay [2] were 300 to 1000 nM and no more than 100 nM, respectively. In assay [5], the “Micturition interval prolonging activity” value was 25.8%.
Take `Cc1c(-c2ccccc2)nn(-c2nc(C(=O)O)cs2)c1-c1cc(F)c(F)c(F)c1` [Exp. 90]: in assay [2], the IC50 was 100 to 300 nM.
Regarding `O=C(O)c1csc(-n2nc(-c3ccccc3O)cc2-c2ccccc2)n1` [Exp. 20], the half-inhibitory concentration (IC50) in assay [1] was 1000 to 3000 nM; in assay [2], 100 to 300 nM.
The like results for `Cc1c(-c2ccccc2)nn(-c2nc(C(=O)O)cs2)c1C1=CCCCO1` [Exp. 111] were, in that order, no more than 300 nM and no more than 100 nM.
As for `Cc1c(-c2ccccc2)nn(-c2nc(C(=O)O)cs2)c1-c1ccsc1` [Exp. 92], in assay [2], the IC50 is no more than 100 nM.
The same measure, in the same setting: with `Cc1c(-c2ccccc2)nn(-c2nc(C(=O)O)cs2)c1-c1cccc(O)c1` [Exp. 48] the figure was 100 to 300 nM.
As for `Cc1c(-c2ccccc2)nn(-c2nc(C(=O)O)cs2)c1-c1cccc2cccnc12` [Exp. 105], in assay [2], the IC50 is no more than 100 nM.
In the case of `O=C(O)c1csc(-n2nc(-c3ccccc3)c(F)c2-c2ccccc2)n1` [Exp. 36], the IC50 in assay [1] was 300 to 1000 nM; in assay [2] it was no more than 100 nM.
Take `Cc1c(-c2ccccc2)nn(-c2nc(C(=O)O)cs2)c1-c1cccc(F)c1` [Exp. 44]: the 50% inhibitory concentration (IC50) in assay [2] is no more than 100 nM.
The same measure, in the same setting: with `Cc1c(-c2ccccc2)nn(Cc2nc(C(=O)O)cs2)c1-c1ccccc1` [Exp. 14, 2-{(4-Methyl-3,5-diphenyl-1H-pyrazol-1-yl)methyl}thiazole-4-carboxylic acid] the figure was 300 to 1000 nM.
Turning to `O=C(O)c1csc(-n2nc3c(c2-c2ccccc2)CCc2ccccc2-3)n1` [Exp. 116], the values for the half-maximal inhibitory concentration (IC50) in assay [1] and in assay [2] were no more than 300 nM and no more than 100 nM, respectively.
